pIC50: −log10 of the molar value. Bounds are passed on as bounds.

The assay has as its target LSD-1 enzyme (Homo sapiens (Human), UniProt O60341). As to the kind of experiment: LANCE LSD1/KDM1A demethylase assay (LSD1 histone demethylase biochemical assay). Conditions: 1 nM LSD-1 enzyme, 1 hour preincubation at 25° C., 0.4 μM Biotin-labeled Histone H3 peptide substrate. The procedure:
LSD1 Histone Demethylase Biochemical Assay
LANCE LSD1/KDM1A demethylase assay-10 μL of 1 nM LSD-1 enzyme (ENZO BML-SE544-0050) in the assay buffer (50 mM Tris, pH 7.5, 0.01% Tween-20, 25 mM NaCl, 5 mM DTT) were preincubated for 1 hour at 25° C. with 0.8 μL compound/DMSO dotted in black 384 well polystyrene plates. […] Reactions were stopped by addition of 10 μL 1× LANCE Detection Buffer (PerkinElmer CR97-100) supplemented with 1.5 nM Eu-anti-unmodified H3K4 Antibody (PerkinElmer TRF0404), and 225 nM LANCE Ultra Streptavidin (PerkinElmer TRF102) along with 0.9 mM Tranylcypromine-HCl (Millipore 616431). After stopping the reactions plates were incubated for 30 minutes and read on a PHERAstar FS plate reader (BMG Labtech).
(In TR-FRET formats the signal depends on donor and acceptor labels being close together.)
By pIC50 is commonly meant the negative decadic logarithm of the IC50, by convention in mol/L. `Cc1ccc(-c2c(-c3ccc(C#N)cc3)nc(OC[C@@H]3CCNC3)c3nc(C(=O)NC4CC4)cn23)cc1` [Example 39, 6-(4-cyanophenyl)-N-cyclopropyl-5-(4-methylphenyl)-8-[(3R)-pyrrolidin-3-ylmethoxy]imidazol[1,2-a]pyrazine-2-carboxamide] had a pIC50 of no less than 7.30. In turn, `CN(C)C1CCN(c2nc(-c3ccc(C#N)cc3)c(-c3ccc4c(c3)c(N)nn4C)n3ccnc23)CC1` [Example 68, 4-{5-(3-amino-1-methyl-1H-indazol-5-yl)-8-[4-(dimethylamino)piperidin-1-yl]imidazo[1,2-a]pyrazin-6-yl}benzonitrile] showed a pIC50 of no less than 7.30.

`Cc1ccc(-c2c(-c3ccc(C#N)cc3)nc(OC[C@@H]3CCCN(C)C3)c3nccn23)cc1CO` [Example 70, 4-(5-[3-(hydroxymethyl)-4-methylphenyl]-8-{[(3R)-1-methylpiperidin-3-yl]methoxy}imidazo[1,2-a]pyrazin-6-yl)benzonitrile] showed a pIC50 of no less than 7.30. For `CN(C)C1CCN(c2nc(-c3ccc(C#N)cc3)c(-c3ccc4c(c3)CC(O)C4)n3ccnc23)CC1` (racemic) [Example 93, 4-[8-[4-(dimethylamino)piperidin-1-yl]-5-(2-hydroxy-2,3-dihydro-1H-inden-5-yl)imidazo[1,2-a]pyrazin-6-yl]benzonitrile] the value was no less than 7.30; for `CN(C)C1CCCN(c2nc(-c3ccc(C#N)cc3)c(-c3ccc(N4CCCC4=O)nc3)n3ccnc23)C1` (stereo not shown) [Example 99, 4-{8-[3-(dimethylamino)piperidin-1-yl]-5-[6-(2-oxopyrrolidin-1-yl)pyridin-3-yl]imidazo[1,2-a]pyrazin-6-yl}benzonitrile], no less than 7.30; for `Cc1ccc(-c2c(-c3ccc(C#N)cc3)nc(OC[C@@H]3CCNC3)c3nc(CNc4ccon4)cn23)cc1` [Example 45, 4-{2-[(isoxazol-3-ylamino)methyl]-5-(4-methylphenyl)-8-[(3R)-pyrrolidin-3-ylmethoxy]imidazo[1,2-a]pyrazin-6-yl}benzonitrile], no less than 7.30. In turn, `Cc1ccc(-c2c(-c3ccc(C#N)cc3)nc(OC[C@@H]3CCNC3)c3nc(C(=O)NC4CN(C)C4)cn23)cc1` [Example 40, 6-(4-cyanophenyl)-N-(1-methylazetidin-3-yl)-5-(4-methylphenyl)-8-[(3R)-pyrrolidin-3-ylmethoxy]imidazol[1,2-a]pyrazine-2-carboxamide] showed a pIC50 of no less than 7.30. Take `CN1CCC[C@@H](COc2nc(-c3ccc(C#N)cc3)c(-c3ccc4c(c3)C(O)CC4)n3ccnc23)C1` (stereo partly drawn) [Example 73, 4-(5-(3-hydroxy-2,3-dihydro-1H-1-inden-5-yl)-8-{[(3R)-1-methylpiperidin-3-yl]methoxy}imidazo[1,2-a]pyrazin-6-yl)benzonitrile]: the pIC50 was no less than 7.30. For `Cc1cc(-c2c(-c3ccc(C#N)cc3)nc(OC[C@@H]3CCCN(C)C3)c3nccn23)ccc1CO` [Example 72, 4-(5-[4-(hydroxymethyl)-3-methylphenyl]-8-{[(3R)-1-methylpiperidin-3-yl]methoxy}imidazo[1,2-a]pyrazin-6-yl)benzonitrile] the value was no less than 7.30; for `Cc1ccc(-c2c(-c3ccc(C#N)cc3)nc(OC[C@@H]3CCCN(C)C3)c3nccn23)cc1C(C)O` (stereo partly drawn) [Example 87, 4-(5-[3-(1-hydroxyethyl)-4-methylphenyl]-8-{[(3R)-1-methylpiperidin-3-yl]methoxy}imidazo[1,2-a]pyrazin-6-yl)benzonitrile], no less than 7.30; for `Cc1ccc(-c2c(-c3ccc(C#N)cc3)nc(OC[C@@H]3CCN(C)C3)c3nc(CN(C)C)cn23)cc1` [Example 46, 4-(2-[(dimethylamino)methyl]-5-(4-methylphenyl)-8-{[(3R)-1-methylpyrrolidin-3-yl]methoxy}imidazo[1,2-a]pyrazin-6-yl)benzonitrile], no less than 7.30.

In turn, `Cc1ccc(-c2c(-c3ccc(C#N)cc3)nc(N3CCC(N(C)C)CC3)c3nccn23)cc1CO` [Example 96, 4-{8-[4-(dimethylamino)piperidin-1-yl]-5-[3-(hydroxymethyl)-4-methylphenyl]imidazo[1,2-a]pyrazin-6-yl}benzonitrile] had a pIC50 of no less than 7.30.

In the case of `Cc1cc(-c2c(-c3ccc(C#N)cc3)nc(N3CCC(N(C)C)CC3)c3nccn23)cnc1C` [Example 92, 4-[8-[4-(dimethylamino)piperidin-1-yl]-5-(5,6-dimethylpyridin-3-yl)imidazo[1,2-a]pyrazin-6-yl]benzonitrile], the pIC50 is no less than 7.30.

`Cc1ccc(-c2c(-c3ccc(C#N)cc3)nc(CN3CC[C@@H](N(C)C)C3)c3nccn23)cc1` [Example 5, 4-[8-{[(3R)-3-(dimethylamino)pyrrolidin-1-yl]methyl}-5-(4-methylphenyl)imidazo[1,2-a]pyrazin-6-yl]benzonitrile] had a pIC50 of no less than 7.30. With `CN1C(=O)COc2cc(-c3c(-c4ccc(C#N)cc4)nc(N4CCC(N(C)C)CC4)c4nccn34)ccc21` [Example 60, 4-[8-[4-(dimethylamino)piperidin-1-yl]-5-(4-methyl-3-oxo-3,4-dihydro-2H-1,4-benzoxazin-7-yl)imidazo[1,2-a]pyrazin-6-yl]benzonitrile] the figure was no less than 7.30; with `CN1CCN(c2ccc(-c3c(-c4ccc(C#N)cc4)nc(N4CCC(N(C)C)CC4)c4nccn34)cn2)C1=O` [Example 100, 4-{8-[4-(dimethylamino)piperidin-1-yl]-5-[6-(3-methyl-2-oxoimidazolidin-1-yl)pyridin-3-yl]imidazo[1,2-a]pyrazin-6-yl}benzonitrile], no less than 7.30; with `Cc1ccc(-c2c(-c3ccc(C#N)cc3)nc(OC[C@H]3CCCNC3)c3nccn23)cc1` [Example 10, 4-{5-(4-methylphenyl)-8-[(3S)-piperidin-3-ylmethoxy]imidazol[1,2-a]pyrazin-6-yl}benzonitrile], no less than 7.30. Compound `Cc1ccc(-c2c(-c3ccc(C#N)cc3)nc(OC[C@@H]3CCNC3)c3nc(C(=O)N(C)C)cn23)cc1` [Example 38, 6-(4-cyanophenyl)-N,N-dimethyl-5-(4-methylphenyl)-8-[(3R)-pyrrolidin-3-ylmethoxy]imidazo[1,2-a]pyrazine-2-carboxamide] showed a pIC50 of no less than 7.30. As for `Cc1ccc(-c2c(-c3ccc(C#N)cc3)nc(OC[C@@H]3CCNC3)c3nc(CCN(C)C)cn23)cc1` [Example 47, 4-{2-[2-(dimethylamino)ethyl]-5-(4-methylphenyl)-8-[(3R)-pyrrolidin-3-ylmethoxy]imidazo[1,2-a]pyrazin-6-yl}benzonitrile], the pIC50 was no less than 7.30. `CN1CCC[C@@H](COc2nc(-c3ccc(C#N)cc3)c(-c3ccc4c(c3)CCC4O)n3ccnc23)C1` (stereo partly drawn) [Example 80, 4-(5-(1-hydroxy-2,3-dihydro-1H-inden-5-yl)-8-{[(3R)-1-methylpiperidin-3-yl]methoxy}imidazo[1,2-a]pyrazin-6-yl)benzonitrile] showed a pIC50 of no less than 7.30. For `Cn1ncc2cc(-c3c(-c4ccc(C#N)cc4)nc(OC[C@@H]4CCCN(CCO)C4)c4nccn34)ccc21` [Example 65, 4-[8-{[(3R)-1-(2-hydroxyethyl)piperidin-3-yl]methoxy}-5-(1-methyl-1H-indazol-5-yl)imidazo[1,2-a]pyrazin-6-yl]benzonitrile] the value was no less than 7.30; for `Cc1ccc(-c2c(-c3ccc(C#N)cc3)nc(N3CCC4(CC3)CNC4)c3nccn23)cc1` [Example 20, 4-[8-(2,7-diazaspiro[3.5]non-7-yl)-5-(4-methylphenyl)imidazo[1,2-a]pyrazin-6-yl]benzonitrile], no less than 7.30. In turn, `Cc1ccc(-c2c(-c3ccc(C#N)cc3)nc(OC[C@@H]3CCNC3)c3nc(CC#N)cn23)cc1` [Example 36, 4-{2-(cyanomethyl)-5-(4-methylphenyl)-8-[(3R)-pyrrolidin-3-ylmethoxy]imidazol[1,2-a]pyrazin-6-yl}benzonitrile] gave a pIC50 of no less than 7.30. With `CN(C)C1CCN(c2nc(-c3ccc(C#N)cc3)c(-c3cnc4c(c3)oc(=O)n4C)n3ccnc23)CC1` [Example 66, 4-[8-[4-(dimethylamino)piperidin-1-yl]-5-(3-methyl-2-oxo-2,3-dihydro[1,3]oxazolo[4,5-b]pyridin-6-yl)imidazo[1,2-a]pyrazin-6-yl]benzonitrile] the figure was no less than 7.30.

`Cc1ccc(-c2c(-c3ccc(C#N)cc3)nc(OC[C@@H]3CCCNC3)c3nccn23)cc1` [Example 9, 4-{5-(4-methylphenyl)-8-[(3R)-piperidin-3-ylmethoxy]imidazo[1,2-a]pyrazin-6-yl}benzonitrile] showed a pIC50 of no less than 7.30. With `COc1ncc(-c2c(-c3ccc(C#N)cc3)nc(N3CCC(N(C)C)CC3)c3nccn23)cc1O` [Example 118, 4-[8-[4-(dimethylamino)piperidin-1-yl]-5-(5-hydroxy-6-methoxypyridin-3-yl)imidazo[1,2-a]pyrazin-6-yl]benzonitrile] the figure was no less than 7.30; with `CN(C)C1CCN(c2nc(-c3ccc(C#N)cc3)c(-c3cc4oc(=O)n(C)c4cc3F)n3ccnc23)CC1` [Example 62, 4-[8-[4-(dimethylamino)piperidin-1-yl]-5-(5-fluoro-3-methyl-2-oxo-2,3-dihydro-1,3-benzoxazol-6-yl)imidazo[1,2-a]pyrazin-6-yl]benzonitrile], no less than 7.30; with `C[C@@H](O)c1nc2cc(-c3c(-c4ccc(C#N)cc4)nc(N4CCC(N(C)C)CC4)c4nccn34)ccc2n1C` [Example 113, 4-(8-[4-(dimethylamino)piperidin-1-yl]-5-{2-[(1R)-1-hydroxyethyl]-1-methyl-1H-benzimidazol-5-yl}imidazo[1,2-a]pyrazin-6-yl)benzonitrile], no less than 7.30.

The values are drawn from US10112950B2, “Substituted imidazo[1,2-a]pyrazines as LSD1 inhibitors” (Incyte Corporation, priority 2014, dated 2018).
